Data on 44 compounds can be found in patent US7091346B1, “Purine derivatives and processes for their preparation” (Novartis AG, priority 1995, dated 2006).

The structures appear in SMILES notation. Where “and” joins values, the source holds several entries; their conditions need not be identical. Identical values can stand only once. Counter-ions that a name gives are not always drawn. Some results are limits rather than exact numbers.

`COc1cccc(Nc2nc(NN)nc3c2ncn3C(C)C)c1.Cl` had a melting point of 250 °C. To `CCn1cnc2c(Nc3cccc(Cl)c3)nc(NCC(C)(C)N)nc21.Cl` belongs 196 °C; to `CCn1cnc2c(Nc3cccc(C#N)c3)nc(NCCN)nc21.Cl`, 200 °C; to `CC(C)n1cnc2c(Nc3ccc(F)cc3)nc(NCCN)nc21.Cl`, greater than 250 °C. In the case of `CCn1cnc2c(Nc3ccc(F)cc3)nc(NCCN)nc21.Cl`, the melting point is greater than 250 °C. As to `CC(C)n1cnc2c(Nc3cccc(Cl)c3)nc(NCCN)nc21` (as salt: ammonium) [Example 4, 2-(2-Amino-ethylamino)-6-(3-chloro-phenyl-amino)-9-isopropyl-9H-purine], the melting point is 55 to 56 °C. Compound `CCn1cnc2c(Nc3cccc(Cl)c3)nc(N(CCO)CCO)nc21` [Example 2, 6-(3-chloro-phenylamino)-2-(di-[2-hydroxy-ethyl]-amino)-9-ethyl-9H-purine] registered a melting point of 148 to 149 °C. On to `CCn1cnc2c(Nc3cccc(Cl)c3)nc(NCc3ccccc3)nc21` [Example 10, 2-benzylamino-6-(3-chloro-phenyl-amino)-9-ethyl-9H-purine], for which the melting point was in the range of 88 to 90 °C.

Consider `CCn1cnc2c(Nc3cccc(Cl)c3)nc(NCCc3ccccc3)nc21` [Example 11, 2-(2-phenyl-ethyl-amino)-6-(3-chloro-phenyl-amino)-9-ethyl-9H-purine], for which the melting point fell in the range of 151 to 152 °C.

In the case of `CCn1cnc2c(Nc3cccc(Cl)c3)nc(NCCCOC)nc21` [Example 12, 2-(3-methoxy-propyl-amino)-6-(3-chloro-phenyl-amino)-9-ethyl-9H-purine], the melting point was 93 to 94 °C. For `CCn1cnc2c(Nc3cccc(Cl)c3)nc(NCC3CCCO3)nc21` (centres unmarked) [Example 15, 2-(tetrahydrofurfuryl-amino)-6-(3-chloro-phenyl-amino)-9-ethyl-9H-purine] the value was 84 to 86 °C; for `CCn1cnc2c(Nc3cccc(Cl)c3)nc(NCCc3ccccn3)nc21` [Example 16, 2-[2-(2-pyridyl)-ethyl-amino]-6-(3-chloro-phenyl-amino)-9-ethyl-9H-purine], 152 to 153 °C.

Consider `CCn1cnc2c(Nc3cccc(Cl)c3)nc(N3CCC(CCN)CC3)nc21` [Example 18, 2-[4-(2-amino-ethyl)-piperidin-1-yl]-6-(3-chloro-phenyl-amino)-9-ethyl-9H-purine], for which the melting point was in the range of 182 to 184 °C. Regarding `CCn1cnc2c(Nc3cccc(Cl)c3)nc(NCCc3c[nH]c4ccccc34)nc21` [Example 20, 2-[2-(3-indolyl)-ethyl-amino]-6-(3-chloro-phenyl-amino)-9-ethyl-9H-purine], the melting point was in the range of 106 to 108 °C. `CCn1cnc2c(Nc3cccc(Cl)c3)nc(N(C)C3(O)CCCCC3)nc21` [Example 22, 6-(3-chloro-phenyl-amino)-2-([1-hydroxy-cyclohex-1-yl]-methylamino)-9-ethyl-9H-purine]: the melting point is 143 to 145 °C. Take `CCn1cnc2c(Nc3cccc(Cl)c3)nc(N3CCNCC3)nc21` [Example 23, 6-(3-chloro-phenylamino)-9-ethyl-2-piperazino-9H-purine]: the melting point lay within 181.5 to 182.5 °C.

Regarding `CCn1cnc2c(Nc3cccc(C(F)(F)F)c3)nc(NCCCO)nc21` [Example 24, 9-Ethyl-2-(3-hydroxy-propyl-amino)-6-(3-trifluoromethyl-phenyl-amino)-9H-purine], the melting point is 136 °C and 136 to 137 °C.

The compound `CCn1cnc2c(Nc3cccc(C(=O)NCCCO)c3C)nc(NCCCO)nc21` [Example 25, 9-ethyl-2-(3-hydroxy-propyl-amino)-6-[3-[(3-hydroxy-propyl)-aminocarbonyl]-2-methyl-phenyl-amino]-9H-purine] showed a melting point of 138 to 142 °C.

`COc1cccc(Nc2nc(NCCCO)nc3c2ncn3C(C)C)c1` [Example 27, 2-(3-hydroxy-propyl-amino)-6-(3-methoxy-phenyl-amino)-9-isopropyl-9H-purine] showed a melting point of 128 to 129 °C. Take `COc1cccc(Nc2nc(NCCCO)nc3c2ncn3CCO)c1` [Example 28, 9-(2-hydroxy-ethyl)-2-(3-hydroxy-propyl-amino)-6-(3-methoxy-phenyl-amino)-9H-purine]: the melting point fell in the range of 132 to 133 °C. Consider `COc1cc(Nc2nc(NCCCO)nc3c2ncn3C)cc(OC)c1OC` [Example 30, 2-(3-hydroxy-propyl-amino)-6-(3,4,5-trimethoxy-phenyl-amino)-9-methyl-9H-purine], for which the melting point lay in the range of 166 to 167 °C. For `CCn1cnc2c(Nc3cccc(Cl)c3)nc(N3CCC[C@H]3CO)nc21` [Example 40, 6-(3-chloro-phenyl-amino)-9-ethyl-2-[(S)-2-hydroxymethyl-pyrrolidin-1-yl]-9H-purine], the melting point is 169 °C. Compound `CCn1cnc2c(Nc3cccc(Cl)c3)nc(Nc3cccc(N)c3)nc21` [Example 42, 2-[3-amino-phenylamino]-6-(3-chloro-phenyl-amino)-9-ethyl-9H-purine] came in with a melting point of 205 °C. Turning to `CCn1cnc2c(Nc3cccc(Cl)c3)nc(N3CCC[C@@H]3C(N)=O)nc21` [Example 45, 2-[(R)-(−)-2-carbamoyl-pyrrolidin-1-yl]-6-(3-chloro-phenyl-amino)-9-ethyl-9H-purine], the melting point was greater than 230 °C.

Consider `CCn1cnc2c(Nc3cccc(Cl)c3)nc(N3CCC[C@@H]3CN)nc21` [Example 46, 2-[(R)-2-Aminomethyl-pyrrolidin-1-yl]-6-(3-chloro-phenyl-amino)-9-ethyl-9H-purine], for which the melting point was 126 to 129 °C. As to `CCn1cnc2c(Nc3cccc(Cl)c3)nc(NCC(C)N)nc21` (centres unmarked) [Example 47, 2-(2-amino-propyl-amino)-6-(3-chloro-phenyl-amino)-9-ethyl-9H-purine], the melting point lay within 119 to 120 °C. For the compound `CCn1cnc2c(Nc3cccc(Cl)c3)nc(N3CCCC(NC=O)C3)nc21` (centres unmarked) [Example 48, 6-(3-chloro-phenyl-amino)-9-ethyl-2-(3-formylamino-piperidin-1-yl)-9H-purine], the melting point is 184.3 °C.

Compound `CCn1cnc2c(Nc3cccc(Cl)c3)nc(N[C@@H](C)C(N)=O)nc21` [Example 49, 2-[(S)-1-carbamoyl-ethylamino]-6-(3-chloro-phenyl-amino)-9-ethyl-9H-purine] had a melting point of 117 to 121 °C. For the compound `CCn1cnc2c(Nc3cccc(Cl)c3)nc(N(C)C(N)=O)nc21` [Example 53, 2-[carbamoyl-methyl-amino]-6-(3-chloro-phenyl-amino)-9-ethyl-9H-purine], the melting point was greater than 220 °C.

With `CCn1cnc2c(Nc3cccc(Cl)c3)nc(N3CCC4(CC3)OCCO4)nc21` [Example 54, 6-(3-chloro-phenyl-amino)-2-(1,4-dioxa-8-azaspiro[4.5]dec-8-yl)-9-ethyl-9H-purine], the melting point lay in the range of 159 to 161 °C. Turning to `CCn1cnc2c(Nc3cccc(Cl)c3)nc(N(CCO)C3CCCCC3)nc21` [Example 62, 6-(3-chloro-phenyl-amino)-2-[N-cyclohexyl-N-(2-hydroxy-ethyl)-amino]-9-ethyl-9H-purine], the melting point lay in the range of 125 to 128 °C. The compound `CCn1cnc2c(Nc3cccc(Cl)c3)nc(N3CCC[C@H]3C(N)=O)nc21` [Example 64, 2-[(S)-2-carbamoyl-pyrrolidin-1-yl]-6-(3-chloro-phenyl-amino)-9-ethyl-9H-purine] returned a melting point greater than 240 °C. For `CCn1cnc2c(Nc3cccc(Cl)c3)nc(N[C@H]3CC[C@H](O)CC3)nc21` [Example 65, 6-(3-chloro-phenyl-amino)-9-ethyl-2-(trans-4-hydroxy-cyclohexyl-amino)-9H-purine], the melting point turned out to be 116.5 °C.

Compound `CCn1cnc2c(Nc3cccc(Cl)c3)nc(N3CCCC(N)C3)nc21` (centres unmarked) [Example 66, 2-(3-amino-piperidin-1-yl)-6-(3-chloro-phenyl-amino)-9-ethyl-9H-purine] registered a melting point of 165 °C.

`CCn1cnc2c(Nc3cccc(Cl)c3)nc(N3CCC(O)CC3)nc21` [Example 72, 6-(3-chloro-phenyl-amino)-9-ethyl-2-(4-hydroxy-piperidino)-9H-purine] came in with a melting point of 198.7 °C.

As for `CCn1cnc2c(Nc3cccc(Cl)c3)nc(N3C(C)CNCC3C)nc21` (centres unmarked) [Example 74, 6-(3-chloro-phenylamino)-2-[(2,6-dimethyl)-piperazino]-9-ethyl-9H-purine], the melting point was 183 °C. With `CCn1cnc2c(Nc3cccc(Cl)c3)nc(N3CCCCC3)nc21` [Example 82, 6-(3-chloro-phenyl-amino)-9-ethyl-2-piperidino-9H-purine], the melting point was found to be 126 °C. To `CC[C@@H](CO)Nc1nc(Nc2cccc(Cl)c2)c2ncn(CC)c2n1` [Example 83, 6-(3-chloro-phenyl-amino)-9-ethyl-2-[(S)-1-hydroxy-but-2-yl-amino]-9H-purine] belongs 203 °C; to `CC[C@H](CO)Nc1nc(Nc2cccc(Cl)c2)c2ncn(CC)c2n1` [Example 84, 6-(3-chloro-phenyl-amino)-9-ethyl-2-[(R)-1-hydroxy-but-2-yl-amino)-9H-purine], 200 °C; to `CCn1cnc2c(Nc3cccc(Cl)c3)nc(NC3CCCCC3)nc21` [Example 85, 6-(3-chloro-phenyl-amino)-2-cyclohexylamino-9-ethyl-9H-purine], 143 °C. Compound `CCn1cnc2c(Nc3cccc(Cl)c3)nc(NC[C@@H](C)O)nc21` [Example 88, 6-(3-chloro-phenyl-amino)-9-ethyl-2-[(R)-2-hydroxy-propylamino]-9H-purine] came in with a melting point of 161 °C. As for `CCn1cnc2c(Nc3cccc(Cl)c3)nc(NC[C@H](C)O)nc21` [Example 89, 6-(3-chloro-phenyl-amino)-9-ethyl-2-[(S)-2-hydroxy-propylamino]-9H-purine], the melting point was 161 °C. Compound `CC(C)n1cnc2c(Nc3cccc(F)c3)nc(NCCN)nc21` [Example 91, 2-(2-Amino-ethyl-amino)-6-(3-fluoro-phenyl-amino)-9-isopropyl-9H-purine] registered a melting point greater than 250 °C. In turn, `CCn1cnc2c(Nc3cccc(F)c3)nc(NCCO)nc21` [Example 92, 2-(2-hydroxy-ethyl-amino)-6-(3-fluoro-phenyl-amino)-9-ethyl-9H-purine] came in with a melting point of 184 °C.

The melting point is the temperature of the solid-liquid transition.
